Test results: patent US6894161B2, “Methods and compositions for photo-cross linking photoactive compounds to target tissue” (The University of British Columbia, priority 2001, dated 2005)

Test: Cyclic voltammetry, redox potentials
Assay type: physicochemical
Conditions: dichloromethane at 22° C. versus Fc
Text: Without being bound by theory, it is believed that the observed photochemical reaction with long wavelength light is not the result of intramolecular energy transfer from the porphyrin to the pyrazoline because estimations indicate that it would be an extremely endothermic process. With respect to the possibility that a photoinduced electron transfer may be responsible, it is first noted that there is no precedence for this reaction with pyrazolines. If the porphyrin and pyrazoline are considered as separate molecules, however, the estimation of the feasibility of an electron transfer process may be conducted as follows. Generally, a photochemical electron transfer occurs only when it is exergonic or <5 kcal mol^−1 endergonic (Eberson, L. Electron Transfer Reactions in Organic Chemistry, Springer-Verlag: Berlin Germany, 1987). The free energy change for a photoinduced electron transfer can be determined from the oxidation potential of the electron donor (E°D), the reduction potential of the electron acceptor (E°A) and the excited state energy of the sensitizer (E0,0), using the relationship ΔGET=23.06 kcal mol^−1[(E°D−E°A)−E0,0]−C; where C is a term that accounts for solvation. In order to estimate the feasibility of electron transfer using this relationship, the redox properties of the molecules must be known. The starting materials MePPP (18), the pyrazoline (19), and the photoproduct cyclopropane (20) have reduction and oxidation potentials as shown in Table 2.
The radical anions and dianions are therefore stable on the time scale of these experiments, with no chemistry occurring on addition of electrons to these molecules. If any chemical reactions were occurring from the radical anion or dianion, the CV's would be irreversible. […] On reduction, two consecutive electrons are accepted by the porphyrin macrocycle in each of 18, 19 and 20. The oxidations are also reversible; the only notable feature of the oxidation potentials is that 19 and 20 are somewhat easier to oxidize than MePPP. […]

Structure (SMILES): C=Cc1c(C)c2cc3nc(c4c5[nH]c(cc6nc(cc1[nH]2)C(C)=C6CC)c(C)c5C(=O)C4)C(CCC(=O)OC)C3C (stereo not drawn) [Compound 18, Methylpyropheophorbide]
- Oxidation 1 (redox potential): 0.61
- Reduction 1 (redox potential): −1.47
- Reduction 2 (redox potential): −1.73
